Source: patent US6274715A, “Tricyclic erythromycin derivatives” (priority 1997, dated 2001)
Values after ≈ are worked out from the molar mass of the structure shown. Like-named read-outs stand apart in the source and are kept apart here.

Columns and labels:
Assay type in all cases: cell-based
[1] = system: PSEUDOMONAS AERUGINOSA K799/WT; assay: In vitro antibacterial activity, MIC, BHI agar dilution; conditions: P. aeruginosa K799/WT
[2] = system: ESCHERICHIA COLI DC-2; assay: as above
[3] = system: PSEUDOMONAS AERUGINOSA K799/61; assay: as above
[4] = system: STAPHYLOCOCCUS AUREUS A5177; assay: as above
[5] = system: ENTEROBACTER AEROGENES ATCC 13048; assay: as above
[6] = system: STAPHYLOCOCCUS EPIDERMIDIS 3519; conditions: S. epidermidis 3519; BHI agar; unit assumed
[7] = system: PSEUDOMONAS AERUGINOSA BMH10; assay: In vitro antibacterial activity, MIC, BHI agar dilution
[8] = system: EN[…] ATCC 8043; assay: as above
Protocol: (§1) Representative compounds of the present invention were assayed in vitro for antibacterial activity as follows: Twelve petri dishes containing successive aqueous dilutions of the test compound mixed with 10 mL of sterilized Brain Heart Infusion (BHI) agar (Difco 0418-01-5) were prepared. Each plate was inoculated with 1:100 (or 1:10 for slow-growing strains, such as Micrococcus and Streptococcus) dilutions of up to 32 different microorganisms, using a Steers replicator block. The inoculated plates were incubated at 35-37° C. for 20 to 24 hours. In addition, a control plate, using BHI agar containing no test compound, was prepared and incubated at the beginning and end of each test.
(§2) An additional plate containing a compound having known susceptibility patterns for the organisms being tested and belonging to the same antibiotic class as the test compound was also prepared and incubated as a further control, as well as to provide test-to-test comparability. Erythromycin A was used for this purpose.
(§3) After incubation, each plate was visually inspected. The minimum inhibitory concentration (MIC) was defmed as the lowest concentration of drug yielding no growth, a slight haze, or sparsely isolated colonies on the inoculum spot as compared to the growth control.

[9] = system: M[…] ATCC 9341; assay: as above
Protocol: as §1, §2, §3

[10] = system: M[…] ATCC 4698; assay: as above; conditions: M. luteus ATCC 4698, unit assumed
Protocol: as §1, §2, §3

[11] = system: STR[…] 508; assay: as above
Protocol: as §1, §2, §3

[12] = system: STREPTOCOCCUS PYOGENES 930; assay: as above
[13] = system: STREPTOCOCCUS PYOGENES EES61; assay: as above; conditions: S. pyogenes EES61, unit assumed
[14] = system: STAPHYLOCOCCUS AUREUS ATCC 6538P; assay: as above; conditions: S. aureus ATCC 6538P, 35-37° C., 20 to 24 hours
[15] = system: ESCHERICHIA COLI SS; assay: as above; conditions: E. coli SS, unit assumed
[16] = system: STAPHYLOCOCCUS AUREUS CMX 553; assay: as above
[17] = system: STAPHYLOCOCCUS AUREUS NCTC10649M; assay: as above; conditions: S. aureus NCTC10649M
[18] = system: ESCHERICHIA COLI JUHL; conditions: E. coli JUHL; BHI agar; listed as Ex 39; unit assumed
[19] = system: STREPTOCOCCUS PYOGENES PIU 2548; assay: In vitro antibacterial activity, MIC, BHI agar dilution; conditions: S. pyogenes PIU 2548, unit assumed
[20] = system: ESCHERICHIA COLI H560; assay: as above
[21] = system: STAPHYLOCOCCUS AUREUS CMX 642A; assay: as above; conditions: S. aureus CMX 642A, unit assumed
[22] = system: KLEBSIELLA PNEUMONIAE ATCC 8045; assay: as above
[23] = system: STAPHYLOCOCCUS AUREUS A-5278; assay: as above; conditions: S. aureus A-5278, unit assumed
[24] = system: PSEUDOMONAS AERUGINOSA DPHD-5263; assay: as above; conditions: P. aeruginosa DPHD-5263, unit assumed
[25] = system: PSEUDOMONAS AERUGINOSA DPHD-2862; assay: as above; conditions: P. aeruginosa DPHD-2862, unit assumed
[26] = system: PSEUDOMONAS CEPACIA 296I; assay: as above; conditions: P. cepacia 296I
[27] = system: PROVIDENCIA STUARTII CMX 640; conditions: P. stuartii CMX 640; BHI agar; unit assumed
[28] = system: STREPTOCOCCUS BOVIS A-5169; assay: In vitro antibacterial activity, MIC, BHI agar dilution
[29] = system: ESCHERICHIA COLI KNK 437; conditions: E. coli KNK 437, BHI agar, unit assumed
[30] = system: MYCOBACTERIUM SMEGMATIS ATCC 114; assay: In vitro antibacterial activity, MIC, BHI agar dilution; conditions: M. smegmatis ATCC 114, unit assumed
[31] = system: PSEUDOMONAS AERUGINOSA 5007; assay: as above
[32] = system: CANDIDA ALBICANS CCH 442; assay: as above
[33] = system: STAPHYLOCOCCUS AUREUS 1775; assay: as above; conditions: S. aureus 1775, unit assumed
[34] = S. aureus CMX 553, unit assumed
[35] = P. aeruginosa K799/61, unit assumed
[36] = S. agalactiae CMX 508, unit assumed

SMILES: CCC1OC(=O)C(C)C(=O)C(C)C(OC2OC(C)CC(N(C)C)C2O)C(C)(OC)CC(C)C2=NCC(CCc3ccccc3)N3C(=O)OC1(C)C3C2C (stereo not shown) [Example 39]
- MIC ([1]; listed as Ex 39, unit assumed): 100 µg/mL (≈ 135 µM)
- MIC ([2]; E. coli DC-2, unit assumed): 100 µg/mL (≈ 135 µM)
- MIC ([3]; P. aeruginosa K799/61, listed as Ex 39, unit assumed): 1.56 µg/mL (≈ 2.1 µM)
- MIC ([4]; S. aureus A5177, unit assumed): 0.39 µg/mL (≈ 0.526 µM)
- MIC ([5]; E. aerogenes ATCC 13048, listed as Ex 39, unit assumed): > 100 µg/mL
- MIC [6]: 0.78 µg/mL (≈ 1.05 µM)
- MIC ([7]; P. aeruginosa BMH10, listed as Ex 39, unit assumed): 50 µg/mL (≈ 67.4 µM)
- MIC ([8]; E. faecium ATCC 8043, listed as Ex 39, unit assumed): 0.1 µg/mL (≈ 0.135 µM)
- MIC ([9]; M. luteus ATCC 9341, listed as Ex 39, unit assumed): 0.1 µg/mL (≈ 0.135 µM)
- MIC [10]: 0.2 µg/mL (≈ 0.27 µM)
- MIC ([11]; S. agalactiae CMX 508, listed as Ex 39, unit assumed): 0.05 µg/mL (≈ 0.0674 µM)
- MIC ([12]; S. pyogenes 930, listed as Ex 39, unit assumed): 100 µg/mL (≈ 135 µM)
- MIC [13]: 0.01 µg/mL (≈ 0.0135 µM)
- MIC ([14]; unit assumed): 0.78 µg/mL (≈ 1.05 µM)
- MIC [15]: 0.39 µg/mL (≈ 0.526 µM)
- MIC [16, 34]: 0.39 µg/mL (≈ 0.526 µM)
- MIC ([17]; listed as Ex 39, unit assumed): 0.39 µg/mL (≈ 0.526 µM)
- MIC [18]: 100 µg/mL (≈ 135 µM)
- MIC [19]: 0.2 µg/mL (≈ 0.27 µM)
- MIC ([20]; E. coli H560, listed as Ex 39, unit assumed): 25 µg/mL (≈ 33.7 µM)

SMILES: CC[C@H]1OC(=O)[C@H](C)C(=O)[C@H](C)[C@@H](O[C@@H]2O[C@H](C)C[C@H](N(C)C)[C@H]2O)[C@](C)(OC)C[C@@H](C)C2=NC[C@H](COCc3ccc(OC)cc3)N3C(=O)O[C@@]1(C)[C@H]3[C@H]2C [Example 62]
- MIC ([1]; unit assumed): 25 µg/mL (≈ 31.7 µM)
- MIC ([2]; E. coli DC-2, unit assumed): 50 µg/mL (≈ 63.5 µM)
- MIC [21]: 0.2 µg/mL (≈ 0.254 µM)
- MIC [3, 35]: 0.2 µg/mL (≈ 0.254 µM)
- MIC ([22]; K. pneumoniae ATCC 8045, unit assumed): 25 µg/mL (≈ 31.7 µM)
- MIC ([4]; S. aureus A5177, unit assumed): 0.2 µg/mL (≈ 0.254 µM)
- MIC ([5]; E. aerogenes ATCC 13048, unit assumed): 25 µg/mL (≈ 31.7 µM)
- MIC [6]: 0.2 µg/mL (≈ 0.254 µM)
- MIC ([7]; P. aeruginosa BMH10, unit assumed): 100 µg/mL (≈ 127 µM)
- MIC [23]: > 100 µg/mL
- MIC [24]: 50 µg/mL (≈ 63.5 µM)
- MIC [25]: 100 µg/mL (≈ 127 µM)
- MIC ([26]; unit assumed): 12.5 µg/mL (≈ 15.9 µM)
- MIC ([8]; E. faecium ATCC 8043, unit assumed): 0.1 µg/mL (≈ 0.127 µM)
- MIC ([9]; M. luteus ATCC 9341, unit assumed): 0.01 µg/mL (≈ 0.0127 µM)
- MIC [10]: 0.02 µg/mL (≈ 0.0254 µM)
- MIC [11, 36]: 0.1 µg/mL (≈ 0.127 µM)
- MIC [27]: > 100 µg/mL
- MIC ([12]; S. pyogenes 930, unit assumed): > 100 µg/mL
- MIC [13]: 0.1 µg/mL (≈ 0.127 µM)
- MIC ([14]; unit assumed): 0.2 µg/mL (≈ 0.254 µM)
- MIC [15]: 0.2 µg/mL (≈ 0.254 µM)
- MIC [16, 34]: 0.2 µg/mL (≈ 0.254 µM)
- MIC ([17]; unit assumed): 0.2 µg/mL (≈ 0.254 µM)
- MIC ([28]; S. bovis A-5169, unit assumed): 0.1 µg/mL (≈ 0.127 µM)
- MIC [29]: 100 µg/mL (≈ 127 µM)
- MIC [30]: 0.1 µg/mL (≈ 0.127 µM)
- MIC [19]: 0.2 µg/mL (≈ 0.254 µM)
- MIC ([31]; P. aeruginosa 5007, unit assumed): 100 µg/mL (≈ 127 µM)
- MIC ([32]; C. albicans CCH 442, unit assumed): > 100 µg/mL
- MIC [33]: > 100 µg/mL
- MIC ([20]; E. coli H560, unit assumed): 100 µg/mL (≈ 127 µM)

SMILES: CC[C@H]1OC(=O)[C@H](C)C(=O)[C@H](C)[C@@H](O[C@@H]2O[C@H](C)C[C@H](N(C)C)[C@H]2O)[C@](C)(OC)C[C@@H](C)C2=NC3CN(CCCc4ccccc4)CC3N3C(=O)O[C@@]1(C)[C@H]3[C@H]2C (stereo partly shown) [Example 112]
- MIC ([1]; listed as Ex 112, unit assumed): > 100 µg/mL
- MIC ([2]; E. coli DC-2, listed as Ex 112, unit assumed): > 100 µg/mL
- MIC [21]: 0.78 µg/mL (≈ 0.979 µM)
- MIC [3, 35]: 0.78 µg/mL (≈ 0.979 µM)
- MIC ([22]; K. pneumoniae ATCC 8045, listed as Ex 112, unit assumed): 100 µg/mL (≈ 125 µM)
- MIC ([4]; S. aureus A5177, listed as Ex 112, unit assumed): 0.39 µg/mL (≈ 0.489 µM)
- MIC ([5]; E. aerogenes ATCC 13048, listed as Ex 112, unit assumed): 100 µg/mL (≈ 125 µM)
- MIC [6]: 0.78 µg/mL (≈ 0.979 µM)
- MIC ([7]; P. aeruginosa BMH10, listed as Ex 112, unit assumed): 100 µg/mL (≈ 125 µM)
- MIC ([26]; listed as Ex 112, unit assumed): 100 µg/mL (≈ 125 µM)
- MIC ([9]; M. luteus ATCC 9341, listed as Ex 112, unit assumed): 0.1 µg/mL (≈ 0.125 µM)
- MIC [10]: 0.2 µg/mL (≈ 0.251 µM)
- MIC [11, 36]: 0.02 µg/mL (≈ 0.0251 µM)
- MIC ([12]; S. pyogenes 930, listed as Ex 112, unit assumed): > 100 µg/mL
- MIC ([14]; listed as Ex 112, unit assumed): 0.39 µg/mL (≈ 0.489 µM)
- MIC ([16]; S. aureus CMX 553, listed as Ex 112, unit assumed): 0.78 µg/mL (≈ 0.979 µM)
- MIC ([17]; listed as Ex 112, unit assumed): 0.78 µg/mL (≈ 0.979 µM)
- MIC ([28]; S. bovis A-5169, listed as Ex 112, unit assumed): ≤ 0.005 µg/mL
- MIC ([29]; listed as Ex 112): 100 µg/mL (≈ 125 µM)
- MIC [30]: 0.39 µg/mL (≈ 0.489 µM)
- MIC [19]: 0.2 µg/mL (≈ 0.251 µM)
- MIC ([31]; P. aeruginosa 5007, listed as Ex 112, unit assumed): > 100 µg/mL
- MIC ([32]; C. albicans CCH 442, listed as Ex 112, unit assumed): 100 µg/mL (≈ 125 µM)
- MIC ([20]; E. coli H560, unit assumed): 50 µg/mL (≈ 62.7 µM)
